Reference: patent US20140302217A1, “PRESERVATIVE COMBINATIONS COMPRISING PROPIONIC ACID AND VANILLIN AND/OR CINNAMIC ACID” (Purac Biochem B.V., priority 2011, published 2014)

What was measured:
[1] = system: Byssoaclamys fulva (Bysful2); test: MEA agar plate colony growth test; format: cell-based; details: single component, agar plates
Experimental: (§1) Each experiment existed of 10 MEA agar plates containing a successive amount of component, starting from 0 ppm to the maximal used concentration.
(§2) MEA was prepared by dissolving 20 g of Malt extract (Difco, England), 1 g of Peptone (Becton Dickinson, USA), 20 g of glucose and 20 g of bacteriological agar (No. 1. Oxoid, England) in 11 of dematerialized water. The pH was adjusted to 3.2 by adding 5.9 ml of Hcl 1M after heat sterilization.
(§3) A stock solution was made for each component. The stock was 25 times the maximal used concentration. A successive amount from 0 to 900 μl of these stocks, making the concentration range, was pipetted in 10, 50 ml capped test tubes.
(§4) Subsequently, 25 ml of warm (80-90° C.) MEA agar was pipetted, using a sterile 25 ml pipette, in the tubes and the tubes were vortexed slowly but vigorously. Next, the component containing agar was poured out in 9 cm Petri dishes. Besides single components against single moulds, combinations of propionate with potassium cinnamate or vanillin were tested on solid agar. To prepare these binary combinations 6.25 ml of a 4 times concentrated component was mixed with the other components that was also 4 times concentrated. The mix of components were mixed with 12.5 ml double concentrated MEA to reach the preferred concentrations.
(§5) After the plates were dried a dot was spotted at the backside and in the centre of the petridish 0.5 μl of the mould spore solution was spotted on the agar targeting the dot in the centre. When the drop was dried in, the plates were placed bottom down in the incubator at 25° C.
(§6) The growth of colonies was determined by measurement of the colony diameter at different points in time. The growth curves were converted to dose response curves as described in 2.6.
(§7) The data from the agar plate experiments were obtained by measuring the colony size changes. The change in time was interpreted as growth speed and growth curves were plotted.
(§8) To convert the growth curves to dose response curves the μ Max (maximum growth rate) was calculated per concentration of antimicrobial component. The curves were fitted to a Logistic Dose Response (LDR) Intercept Form (Equation 8013) using Table curve 2D version 5.1

Penicillium sp (Pen381) = test: MEA agar plate colony growth test; format: cell-based; details: single component, agar plates
Experimental: as §1, §2, §3, §4, §5, §6, §7, §8

pure cultures of moulds = test: single components and binary combinations on MEA agar plates against pure cultures of moulds (colony diameter); format: cell-based, Fusarium oxisporum, Byssoaclamys fulva, Penicillium sp
Experimental: as §1, §2, §3, §4, §5, §6, §7
To convert the growth curves to dose response curves the μ Max (maximum growth rate) was calculated per concentration of antimicrobial component. […]

mould cocktail = test: combinations of components in model drink in 96-well microtiter plates, visual observation of growth; format: cell-based, Fusarium oxisporum, Byssoaclamys fulva, Penicillium sp; details: 3 weeks at 20°
Experimental: The tests where two components or more components were combined in model drink were carried out in sterile 96-well microtiter plates. Sterile matrix was prepared according recipe of Nestle with increasing quantities of two different inhibitors. The concentrations of each inhibitor were presented in 8 equal concentration steps that ranged from 0 to 1-2 times the (estimated) MIC value of particular mould for a particular inhibitor resulting in 64 different media. 200 μl of each medium was transferred to a panel of a sterile 96-well microtiter plate.
Completed well plates were stored at 4° C. until further use. The data was obtained via optical observation of growth.
Spores of all moulds were collected via the method as described in 2.3. Spores were counted using the Burker-turk method and adjusted to a log 5 per ml in PFZ and mixed to a homologue suspension. This suspension was diluted 100 times for inoculation.
In order to have an idea of the efficacy of the combination of propionate, vanillin and potassium cinnamate in model drink, some experiments were done in microwells plates. These experiments were visually observed after 3 weeks of incubation at 20° and used as pre-application experiments in order to create an expectation for the efficacy of the components in long term application experiments. The data that is shown in table 5 below is divided in “+” and “−”. The “+” means visible growth, while the “−” means no visible growth of the mould cocktail at the specific concentrations. […] However, combined with an amount of nearly 400 ppm of propionate and 75 ppm of vanillin the model drink is stable for at least 3 weeks.

| SMILES | concentration at which Byssoclamys is inhibited [1] | concentration at which Penicillium is inhibited (Penicillium sp (Pen381)) | sensitivity of all moulds to the component (pure cultures of moulds) | amount needed for an overall inhibition of all moulds (pure cultures of moulds; single component, also printed as 900 ppm) | inhibition of the growth of the mould cocktail (mould cocktail; 350 ppm alone) | visible growth of mould cocktail (mould cocktail; Kcinnamate 0.0050% (w/v)) | visible growth of mould cocktail (mould cocktail; Kcinnamate 0.0100% (w/v)) | visible growth of mould cocktail (mould cocktail; Kcinnamate 0.0150% (w/v)) | visible growth of mould cocktail (mould cocktail; Kcinnamate 0.0200% (w/v)) | visible growth of mould cocktail (mould cocktail; Kcinnamate 0.0250% (w/v)) | visible growth of mould cocktail (mould cocktail; Kcinnamate 0.0300% (w/v)) | visible growth of mould cocktail (mould cocktail; Kcinnamate 0.0350% (w/v)) | growth of Penicillium (Penicillium sp (Pen381); after 100 ppm) | inhibition of Penicillium (Penicillium sp (Pen381); levels up to 200 ppm) |
| --- | --- | --- | --- | --- | --- | --- | --- | --- | --- | --- | --- | --- | --- | --- |
| CCC(=O)O [propionate, Propionic acid] | approximately 0.15% | approximately 0.15% | sensitive |  |  |  |  |  |  |  |  |  |  |  |
| COc1cc(C=O)ccc1O [vanillin, 4-Hydroxy-3-methoxybenzaldehyde] |  |  | sensitive | approximately 0.09% |  |  |  |  |  |  |  |  |  |  |
| O=C([O-])C=Cc1ccccc1.[K+] [potassium cinnamate] |  |  |  |  | not sufficient | + | + | + | + | + | + | + | dramatic increase | not inhibited |
